Test systems include 786-0; A498; A549; CCRF-CEM; NCI-H23; NCI-H460; RXF 393; SF-295; SK-MEL-28; SK-OV-3; SNB-75; SW-620; TK-10; UO-31; SK-MEL-5.
Test in all cases: NCI tumour cell line growth inhibition, 48 h

SMILES strings stand for the structures.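 Results reflect a 48-hour exposure of cells in 96-well plates to compound at five concentrations. GI50: concentration for 50% inhibition of growth.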 Active and inactive are the calls of the source. Cut-off read from the data, not from the text of the source: active = GI50 up to about 1.1 µM and inactive = higher.

As to `CCC1(CC)C(=O)NC(=S)N=C1N`, the GI50 in the test with 786-0, with A498, in the test with A549, in the test with CCRF-CEM, in the test on NCI-H23 and in the test on NCI-H460 was > 100 µM (inactive) throughout. Besides, the GI50 with RXF 393 is > 100 µM (inactive); in the test on SF-295 it was > 100 µM (inactive); in the test on SK-MEL-28 it was > 100 µM (inactive); in the test with SK-OV-3, > 100 µM (inactive); in the test on SNB-75, 57 µM (inactive); in the test on SW-620, > 100 µM (inactive). For the same molecule, the GI50 in the test on TK-10 and in the test with UO-31 was > 100 µM (inactive) throughout.

As for `O=c1[nH]c(=O)n([C@@H]2C[C@H](CO)[C@H](O)C2)cc1/C=C/Br`, the GI50 with 786-0, in the test with A498, in the test on A549, in the test with CCRF-CEM, in the test with NCI-H23 and in the test with NCI-H460 was > 100 µM (inactive) throughout. The GI50 in the test on SF-295, with SK-MEL-28, with SK-MEL-5, with SK-OV-3, in the test on SNB-75 and with SW-620 was > 100 µM (inactive) in each case. The GI50 with TK-10 and with UO-31 was > 100 µM (inactive) each time.

For `Cc1ccc(NC(=O)CC/C(CC(=O)C(C)(C)C)=N\Nc2ccc([N+](=O)[O-])cc2[N+](=O)[O-])cc1C`, the GI50 in the test on 786-0 was 79.6 µM (inactive); in the test with A549, 37.7 µM (inactive); in the test with CCRF-CEM, 25.2 µM (inactive); in the test with NCI-H23, 46.2 µM (inactive); in the test on NCI-H460, 56.8 µM (inactive); in the test with RXF 393 it was 67.5 µM (inactive). Further, the GI50 in the test on SF-295 was 32.6 µM (inactive); in the test on SK-MEL-28 it was > 100 µM (inactive); in the test with SK-OV-3, > 100 µM (inactive); in the test with SW-620, 46.3 µM (inactive); in the test with TK-10, > 100 µM (inactive); in the test with UO-31, 53.2 µM (inactive).

Take `CCOc1ccc(/C(Cl)=C(\C=O)c2ccc(OC)c(OC)c2)cc1OCC`: the GI50 was 64.9 µM (inactive) with 786-0; 46.9 µM (inactive) in the test with A549; 12.7 µM (inactive) with CCRF-CEM; 23.3 µM (inactive) in the test on NCI-H23; 83.4 µM (inactive) in the test on NCI-H460; 31.4 µM (inactive) with RXF 393. Further, the GI50 with SF-295 is 72.6 µM (inactive); with SK-MEL-28, > 100 µM (inactive); with SK-MEL-5, 22.5 µM (inactive); with SK-OV-3, > 100 µM (inactive); with SNB-75, 29.9 µM (inactive); in the test on SW-620, 83.9 µM (inactive). Besides, the GI50 is 80.9 µM (inactive) with TK-10 and 53 µM (inactive) with UO-31.

`N#CC(c1ccccn1)c1nc2ccccc2[nH]1` (configuration not stated): the GI50 with 786-0 is 97.5 µM (inactive); in the test on A498, > 100 µM (inactive); with A549, > 100 µM (inactive); in the test on CCRF-CEM, > 100 µM (inactive); with NCI-H23, > 100 µM (inactive); in the test on NCI-H460, 85.5 µM (inactive). The GI50 with SF-295 is > 100 µM (inactive); with SK-MEL-28 it was > 100 µM (inactive); in the test on SK-MEL-5 it was > 100 µM (inactive); in the test with SK-OV-3, > 100 µM (inactive); with SNB-75, 49.3 µM (inactive); with SW-620, > 100 µM (inactive). Further, the GI50 with TK-10 and in the test with UO-31 was > 100 µM (inactive) throughout.

For the molecule `OCC(O)C(OC1OC(CO)C(O)C(O)C1O)c1nn(-c2ccc(F)cc2)c2nc3cc(Cl)c(Cl)cc3cc12` (configuration not stated), the GI50 in the test on 786-0, in the test with A498, in the test on CCRF-CEM, in the test with NCI-H23, in the test with NCI-H460 and in the test on RXF 393 was > 100 µM (inactive) each time. For the same molecule, the GI50 with SF-295, with SK-MEL-28, with SK-OV-3, with SNB-75, in the test with TK-10 and in the test on UO-31 was > 100 µM (inactive) throughout.

Regarding `CCCCCCCCCCCCC(Br)C(C)=O` (configuration not stated), the GI50 in the test on 786-0, in the test with A498, in the test on A549, in the test with CCRF-CEM, in the test on NCI-H23 and with NCI-H460 was > 100 µM (inactive) in each case. Besides, the GI50 in the test on RXF 393, in the test on SF-295, in the test on SK-MEL-28, with SK-MEL-5, in the test with SK-OV-3 and with SW-620 was > 100 µM (inactive) throughout. The GI50 in the test with TK-10 and in the test with UO-31 was > 100 µM (inactive) throughout.

Take `COc1ccc(/C=N/N=C(\N)NO)c(Cl)c1O`: the GI50 in the test with 786-0 was 18.4 µM (inactive); in the test on A549, 5.43 µM (inactive); in the test with CCRF-CEM it was 14.7 µM (inactive); in the test with NCI-H23, 23.7 µM (inactive); in the test with RXF 393 it was 16.5 µM (inactive); with SF-295, 4.9 µM (inactive). In addition, the GI50 with SK-MEL-28 is 9.57 µM (inactive); with SK-MEL-5, 5.11 µM (inactive); in the test with SK-OV-3, 22 µM (inactive); in the test with SW-620 it was 19.4 µM (inactive); with UO-31, 11.2 µM (inactive).

Turning to `Cc1ccccc1NC(=O)/C=N/O`, the GI50 is > 100 µM (inactive) in the test on 786-0; > 100 µM (inactive) in the test on A498; > 100 µM (inactive) with A549; < 0.01 µM (active) in the test with CCRF-CEM; > 100 µM (inactive) with NCI-H23; > 100 µM (inactive) with RXF 393. For the same molecule, the GI50 in the test on SF-295, with SK-MEL-28, in the test on SK-MEL-5, in the test with SK-OV-3, with SNB-75 and in the test with SW-620 was > 100 µM (inactive) each time. Besides, the GI50 in the test on TK-10 and in the test on UO-31 was > 100 µM (inactive) in each case.

Consider `O=C1C(Cl)C(c2ccccc2O)N1n1cnc2ccccc2c1=O` (configuration not stated), for which the GI50 was 47.5 µM (inactive) with 786-0; 63.1 µM (inactive) with A549; 19.8 µM (inactive) with CCRF-CEM; 49 µM (inactive) in the test on NCI-H23; 35.2 µM (inactive) in the test on NCI-H460; 22.7 µM (inactive) in the test on RXF 393. Besides, the GI50 with SF-295 was 53.6 µM (inactive); in the test on SK-MEL-28, 70.1 µM (inactive); in the test on SK-MEL-5 it was 56.2 µM (inactive); in the test on SK-OV-3, 25.1 µM (inactive); in the test with SNB-75, 20.4 µM (inactive); in the test with SW-620 it was 58.7 µM (inactive). The GI50 is > 100 µM (inactive) in the test with TK-10 and 50 µM (inactive) in the test with UO-31.

Take `COC1CCC(OS(C)(=O)=O)C(CO)O1` (configuration not stated): the GI50 with 786-0, in the test on A549, with CCRF-CEM, in the test with NCI-H23, in the test with NCI-H460 and with RXF 393 was > 100 µM (inactive) in each case. Moreover, the GI50 with SF-295 was > 100 µM (inactive); with SK-MEL-28, > 100 µM (inactive); with SK-MEL-5, > 10 µM (inactive); with SK-OV-3 it was > 100 µM (inactive); in the test on SNB-75 it was > 100 µM (inactive); with SW-620, > 100 µM (inactive). The GI50 with TK-10 and with UO-31 was > 100 µM (inactive) in each case.

`O=C(N/C(=C\c1ccc([N+](=O)[O-])cc1)c1nc2cc(Cl)ccc2[nH]1)c1ccccc1`: the GI50 in the test on 786-0 is 17.7 µM (inactive); with A549, 20.8 µM (inactive); in the test with CCRF-CEM, 18.6 µM (inactive); with NCI-H23, 18.1 µM (inactive); in the test with RXF 393 it was 21 µM (inactive); in the test with SF-295 it was 23.8 µM (inactive). Also, the GI50 in the test with SK-MEL-28 was 22.9 µM (inactive); with SK-MEL-5 it was 17.6 µM (inactive); in the test on SK-OV-3, 39.4 µM (inactive); with SW-620, 19.5 µM (inactive); with TK-10 it was 32.4 µM (inactive); in the test on UO-31, 13.9 µM (inactive).

As to `CCNC(=O)COc1ccc(Cl)cc1Cl`, the GI50 in the test on 786-0, with A498, with A549, in the test on NCI-H23, with NCI-H460 and in the test on SF-295 was > 100 µM (inactive) in each case. Besides, the GI50 in the test on SK-MEL-28, in the test on SK-MEL-5, in the test with SK-OV-3, in the test on SNB-75, in the test with SW-620 and in the test on UO-31 was > 100 µM (inactive) in each case.

For `CS/C(=N\c1ccccc1Cl)NC(=O)c1ccc(Br)cc1`, the GI50 is 27.1 µM (inactive) in the test with 786-0; 55.8 µM (inactive) with A549; > 10 µM (inactive) in the test on CCRF-CEM; > 100 µM (inactive) with NCI-H23; > 100 µM (inactive) with NCI-H460; 31.3 µM (inactive) in the test on RXF 393. Also, the GI50 with SF-295 is 59.3 µM (inactive); in the test with SK-MEL-28, 25.9 µM (inactive); with SK-OV-3 it was 63 µM (inactive); with SW-620 it was > 100 µM (inactive); in the test with TK-10, 28.2 µM (inactive); with UO-31, > 100 µM (inactive).

For `CC12CCC(=O)C[C@H]1CCC(OC=O)C2Br` (some centres not stated), the GI50 in the test on 786-0, with A498, in the test with A549, with CCRF-CEM, in the test with NCI-H23 and in the test with NCI-H460 was > 100 µM (inactive) each time. Besides, the GI50 in the test on SF-295, in the test with SK-MEL-28, with SK-MEL-5, in the test on SK-OV-3, in the test on SNB-75 and with SW-620 was > 100 µM (inactive) throughout. In addition, the GI50 in the test with TK-10 and in the test with UO-31 was > 100 µM (inactive) each time.

The values are drawn from ChEMBL document CHEMBL1201862, “PubChem BioAssay data set” (2004).
